Results from patent US20220324800A1 (priority 2021, published 2022).

What follows are molecules tested against 3CLpro (Severe acute respiratory syndrome coronavirus 2, UniProt P0DTD1) (assay: biochemical).
Design: species or system SARS-CoV-2
Work on `CC(C)C[C@H](NC(=O)OC(C)(C)C)C(=O)CN(C[C@@H]1CCNC1=O)C(=O)CCl` [Example 1, Tert-butyl ((S)-1-(2-chloro-N—(((S)-2-oxopyrrolidin-3-yl)methyl)acetamido)-5-methyl-2-oxohexan-3-yl)carbamate] yielded an IC50 of under 2000 nM.
`COc1cccc2[nH]c(C(=O)N[C@@H](CC(C)C)C(=O)CN(C[C@@H]3CCNC3=O)C(=O)CCl)cc12` [Example 2, N—((S)-1-(2-Chloro-N—(((S)-2-oxopyrrolidin-3-yl)methyl)acetamido)-5-methyl-2-oxohexan-3-yl)-4-methoxy-1H-indole-2-carboxamide] gave an IC50 of under 2000 nM.
`C=CC(=O)N(CC(=O)[C@H](CC(C)C)NC(=O)OC(C)(C)C)C[C@@H]1CCNC1=O` [Example 3, Tert-butyl ((S)-5-methyl-2-oxo-1-(N—(((S)-2-oxopyrrolidin-3-yl)methyl)acrylamido)hexan-3-yl)carbamate] was tested, and the IC50 was over 20000 nM.
Molecule `C=CC(=O)N(CC(=O)[C@H](CC(C)C)NC(=O)c1cc2c(OC)cccc2[nH]1)C[C@@H]1CCNC1=O` [Example 4, 4-Methoxy-N—((S)-5-methyl-2-oxo-1-(N—(((S)-2-oxopyrrolidin-3-yl)methyl)acrylamido)hexan-3-yl)-1H-indole-2-carboxamide] has an IC50 of over 20000 nM.
Molecule `C#CC(=O)N(CC(=O)[C@H](CC(C)C)NC(=O)c1cc2c(OC)cccc2[nH]1)C[C@@H]1CCNC1=O` [Example 6, 4-Methoxy-N—((S)-5-methyl-2-oxo-1-(N—(((S)-2-oxopyrrolidin-3-yl)methyl)propiolamido)hexan-3-yl)-1H-indole-2-carboxamide] has an IC50 of 2000 to 20000 nM.
In the case of `COc1cccc2[nH]c(C(=O)N[C@@H](CC(C)C)C(=O)CN(C[C@@H]3CCNC3=O)C(=O)CF)cc12` [Example 8, N—((S)-1-(2-Fluoro-N—(((S)-2-oxopyrrolidin-3-yl)methyl)acetamido)-5-methyl-2-oxohexan-3-yl)-4-methoxy-1H-indole-2-carboxamide], the IC50 is reported as over 20000 nM.
In the case of `COc1cccc2[nH]c(C(=O)N[C@@H](CC(C)C)C(=O)CN(C[C@@H]3CCNC3=O)S(=O)(=O)CCl)cc12` [Example 10, N—((S)-1-((1-Chloro-N—(((S)-2-oxopyrrolidin-3-yl)methyl)methyl)sulfonamido)-5-methyl-2-oxohexan-3-yl)-4-methoxy-1H-indole-2-carboxamide], the IC50 is reported as over 20000 nM.
For `CC(C)C[C@H](NC(=O)c1cc(Cl)c(Cl)s1)C(=O)CN(C[C@@H]1CCNC1=O)C(=O)CCl` [Example 11, 4,5-Dichloro-N—((S)-1-(2-chloro-N—(((S)-2-oxopyrrolidin-3-yl)methyl)acetamido)-5-methyl-2-oxohexan-3-yl)thiophene-2-carboxamide], the IC50 was under 2000 nM.
Molecule `CC(C)C[C@H](NC(=O)c1cc2c(F)cccc2s1)C(=O)CN(C[C@@H]1CCNC1=O)C(=O)CCl` [Example 12, N—((S)-1-(2-Chloro-N—(((S)-2-oxopyrrolidin-3-yl)methyl)acetamido)-5-methyl-2-oxohexan-3-yl)-4-fluorobenzo[b]thiophene-2-carboxamide] has an IC50 of under 2000 nM.
With `CC(C)C[C@H](NC(=O)c1cccs1)C(=O)CN(C[C@@H]1CCNC1=O)C(=O)CCl` [Example 13, N—((S)-1-(2-Chloro-N—(((S)-2-oxopyrrolidin-3-yl)methyl)acetamido)-5-methyl-2-oxohexan-3-yl)thiophene-2-carboxamide] the IC50 was under 2000 nM.
In the case of `CC(C)C[C@H](NC(=O)c1cc2ccccc2o1)C(=O)CN(C[C@@H]1CCNC1=O)C(=O)CCl` [Example 14, N—((S)-1-(2-Chloro-N—(((S)-2-oxopyrrolidin-3-yl)methyl)acetamido)-5-methyl-2-oxohexan-3-yl)benzofuran-2-carboxamide], the IC50 is reported as under 2000 nM.
`CC(C)C[C@H](NC(=O)c1cc2c(F)cccc2o1)C(=O)CN(C[C@@H]1CCNC1=O)C(=O)CCl` [Example 15, N—((S)-1-(2-Chloro-N—(((S)-2-oxopyrrolidin-3-yl)methyl)acetamido)-5-methyl-2-oxohexan-3-yl)-4-fluorobenzofuran-2-carboxamide] was tested, and the IC50 was under 2000 nM.
`CC(C)C[C@H](NC(=O)OC(C)(C)C)C(=O)CN(C[C@@H]1CCNC1=O)C(=O)SCc1ccccc1` [Example 16, Tert-butyl ((S)-1-(((benzylthio)carbonyl)(((S)-2-oxopyrrolidin-3-yl)methyl)amino)-5-methyl-2-oxohexan-3-yl)carbamate] showed an IC50 of over 20000 nM.
Work on `CC(=O)OCC(=O)N(CC(=O)[C@H](CC(C)C)NC(=O)OC(C)(C)C)C[C@@H]1CCNC1=O` [Example 17, 2-(((S)-3-((Tert-butoxycarbonyl)amino)-5-methyl-2-oxohexyl)(((S)-2-oxopyrrolidin-3-yl)methyl)amino)-2-oxoethyl acetate] yielded an IC50 of over 20000 nM.
For `COc1cccc2[nH]c(C(=O)N[C@@H](CC(C)C)C(=O)CN(C[C@@H]3CCNC3=O)C(=O)SCc3ccccc3)cc12` [Example 18, S-Benzyl ((S)-3-(4-methoxy-1H-indole-2-carboxamido)-5-methyl-2-oxohexyl)(((S)-2-oxopyrrolidin-3-yl)methyl)carbamothioate], the IC50 was over 20000 nM.
For `CC(C)C[C@H](NC(=O)OCc1ccccc1)C(=O)CN(C[C@@H]1CCNC1=O)C(=O)CCl` [Example 20, Benzyl ((S)-1-(2-chloro-N—(((S)-2-oxopyrrolidin-3-yl)methyl)acetamido)-5-methyl-2-oxohexan-3-yl)carbamate], the IC50 was under 2000 nM.
For `CC(C)C[C@@H](NC(=O)OCc1ccccc1)C(=O)CN(C[C@@H]1CCNC1=O)C(=O)CCl` [Example 21, Benzyl ((R)-1-(2-chloro-N—(((S)-2-oxopyrrolidin-3-yl)methyl)acetamido)-5-methyl-2-oxohexan-3-yl)carbamate], the IC50 was 2000 to 20000 nM.
